“And” between values parts separate entries of the source, which are not always exact repeats. Identical values can stand only once. Inconclusive results and toxic doses are left out. How the source made its calls: active means survival T/C of 150% or more; inactive means T/C below 125% in these data.
Tested on: P388 leukemia ip, CD2F1 mice, survival T/C
Experiment: NCI In Vivo Anticancer Drug Screen. Data for tumor model P388 Leukemia (intraperitoneal) in CD2F1 (CDF1) mice
Settings: endpoint: median survival time, higher = longer survival
Method in brief: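 Mice carrying the transplanted tumor received test compound or vehicle. Survival was recorded in each group, and the value is the treated-group measurement divided by that of the vehicle-treated control group.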

[1] = dose: 50.0 mg/kg/injection, schedule: Q01DX009 (ip), vehicle: saline with Tween-80
[2] = dose: 100.0 mg/kg/injection, schedule: Q01DX009 (ip), vehicle: saline with Tween-80
[3] = dose: 200.0 mg/kg/injection, schedule: Q01DX009 (ip), vehicle: saline with Tween-80
[4] = dose: 400.0 mg/kg/injection, schedule: Q01DX009 (ip), vehicle: saline with Tween-80
[5] = dose: 50.0 mg/kg/injection, schedule: Q01DX005 (ip), vehicle: saline with Tween-80
[6] = dose: 100.0 mg/kg/injection, schedule: Q01DX005 (ip), vehicle: saline with Tween-80
[7] = dose: 25.0 mg/kg/injection, schedule: Q01DX009 (ip), vehicle: saline with Tween-80
[8] = dose: 12.5 mg/kg/injection, schedule: Q01DX009 (ip), vehicle: saline
[9] = dose: 50.0 mg/kg/injection, schedule: Q01DX009 (ip), vehicle: saline
[10] = dose: 200.0 mg/kg/injection, schedule: Q01DX009 (ip), vehicle: saline
[11] = dose: 50.0 mg/kg/injection, schedule: Q01DX009 (ip), vehicle: Klucel (hydroxypropylcellulose) (HPC)
[12] = dose: 100.0 mg/kg/injection, schedule: Q01DX009 (ip), vehicle: Klucel (hydroxypropylcellulose) (HPC)
[13] = dose: 200.0 mg/kg/injection, schedule: Q01DX009 (ip), vehicle: Klucel (hydroxypropylcellulose) (HPC)
[14] = dose: 60.0 mg/kg/injection, schedule: Q01DX005 (ip), vehicle: Klucel (hydroxypropylcellulose) (HPC)
[15] = dose: 120.0 mg/kg/injection, schedule: Q01DX005 (ip), vehicle: Klucel (hydroxypropylcellulose) (HPC)
[16] = dose: 240.0 mg/kg/injection, schedule: Q01DX005 (ip), vehicle: Klucel (hydroxypropylcellulose) (HPC)
[17] = dose: 12.5 mg/kg/injection, schedule: Q01DX009 (ip), vehicle: Klucel (hydroxypropylcellulose) (HPC)
[18] = dose: 25.0 mg/kg/injection, schedule: Q01DX009 (ip), vehicle: saline

Measured: T/C

O=C(/C=C/c1ccc(OCc2ccccc2)cc1)c1ccc([N+](=O)[O-])cc1
inactive: [1] 99 % of control | [2] 104 % of control | [3] 102 % of control

O=C1c2ccccc2C(=O)N1CNc1cccc(NCN2C(=O)c3ccccc3C2=O)c1
inactive: [2] 110 % of control | [3] 95 % of control | [4] 100 % of control

C/C(N=NC(=S)N1CCCCC1C)=C1\C=CC=CN1O (stereo not drawn)
inactive: [5] 110 % of control | [6] 97 % of control | dose: 200.0 mg/kg/injection, schedule: Q01DX005 (ip), vehicle: saline with Tween-80 104 % of control

CCC(c1ccccc1)C(C#N)c1ccccc1 (stereo not drawn)
inactive: [7] 95 % of control | [1] 95 % of control | [2] 94 % of control | [3] 90 % of control

CC(=O)NCCSSSCCNC(C)=O
inactive: dose: 50.0 mg/kg/injection, schedule: Q01DX005 (ip), vehicle: saline 115 % of control | dose: 100.0 mg/kg/injection, schedule: Q01DX005 (ip), vehicle: saline 115 % of control

O=C(Nc1ncc([N+](=O)[O-])s1)c1cccnc1
inactive: dose: 3.12 mg/kg/injection, schedule: Q01DX009 (ip), vehicle: suspension in saline 101 % of control | dose: 6.25 mg/kg/injection, schedule: Q01DX009 (ip), vehicle: suspension in saline 87 % of control | [8] 91 % of control | dose: 12.5 mg/kg/injection, schedule: Q01DX009 (ip), vehicle: suspension in saline 87 % of control | [9] 100 % of control | [10] 88 % of control

COc1cc2c(cc1OC)C1CC3(CCN1CC2)CC(=O)OC3=O (stereo not drawn)
inactive: dose: 50.0 mg/kg/injection, schedule: Q01DX005 (ip), vehicle: DMSO 108 % of control | dose: 100.0 mg/kg/injection, schedule: Q01DX005 (ip), vehicle: DMSO 120 % of control | dose: 200.0 mg/kg/injection, schedule: Q01DX005 (ip), vehicle: DMSO 119 % of control

Cc1cc2c(C(C)C)c(O)c(O)c(C=NCCO)c2c(O)c1-c1c(C)cc2c(C(C)C)c(O)c(O)c(C=NCCO)c2c1O
inactive: [5] 113 % of control | dose: 75.0 mg/kg/injection, schedule: Q01DX005 (ip), vehicle: saline with Tween-80 120 % of control | [6] 120 % of control

O=C(COc1ccc(Cl)cc1)OC(=O)COc1ccc(Cl)cc1
inactive: dose: 25.0 mg/kg/injection, schedule: Q01DX009 (ip), vehicle: other 110 % of control | dose: 50.0 mg/kg/injection, schedule: Q01DX009 (ip), vehicle: other 112 % of control | dose: 100.0 mg/kg/injection, schedule: Q01DX009 (ip), vehicle: other 110 % of control | dose: 200.0 mg/kg/injection, schedule: Q01DX009 (ip), vehicle: other 106 % of control

CC1C(c2ccccc2)OCCN1C=NC#N (stereo not drawn)
inactive: [11] 102 % of control | [12] 103 % of control | [13] 103 % of control

c1ccc(SCCSCCSc2ccccc2)cc1
inactive: [1] 105 % of control | [2] 101 % of control | [3] 106 % of control

CN1CCN(Cc2ccc(Nc3ccccc3)cc2)CC1
inactive: [14] 105 % of control | [15] 108 % of control | [16] 98 % of control

CC1=C(Cl)C(=O)c2c(O)cccc2C1=O
inactive: dose: 1.0 mg/kg/injection, schedule: Q01DX005 (ip), vehicle: Klucel + Tween-80 91 % of control | dose: 2.0 mg/kg/injection, schedule: Q01DX005 (ip), vehicle: Klucel + Tween-80 94 % of control | dose: 4.0 mg/kg/injection, schedule: Q01DX005 (ip), vehicle: Klucel + Tween-80 97 % of control

C=CC(C)(C)c1[nH]c2ccccc2c1CC1NC(=O)C(C)NC1=O (stereo not drawn)
inactive: [17] 86 % of control | [11] 92 % of control

CC(=O)C(=N/O)/C(C)=N/NC(=O)CC#N
inactive: dose: 100.0 mg/kg/injection, schedule: Q04DX009 (ip), vehicle: saline 101 % of control | dose: 200.0 mg/kg/injection, schedule: Q04DX009 (ip), vehicle: saline 100 % of control

Cc1c(C(N)=O)c(-c2ccccc2)c(-c2ccccc2)n1Nc1ccccc1
inactive: [14] 95 % of control | [15] 96 % of control | [16] 92 % of control

CC(C)C(Br)C(N)=O (stereo not drawn)
inactive: dose: 100.0 mg/kg/injection, schedule: Q04DX002 (ip), vehicle: Klucel (hydroxypropylcellulose) (HPC) 100 % of control | dose: 200.0 mg/kg/injection, schedule: Q04DX002 (ip), vehicle: Klucel (hydroxypropylcellulose) (HPC) 103 % of control | dose: 400.0 mg/kg/injection, schedule: Q04DX002 (ip), vehicle: Klucel (hydroxypropylcellulose) (HPC) 105 % of control

NS(=O)(=O)c1ccc(N=Cc2ccccc2)cc1
inactive: [2] 103 % of control | [3] 100 % of control | [4] 98 % of control

CC[C@]12CCCN3CCc4c(n(c5ccccc45)C(=O)C1)[C@@H]32
inactive: [11] 95 % of control | [12] 107 % of control | [13] 91 % of control

COc1cccc2c1C(=O)c1c(O)c3c(c(O)c1C2=O)CC(O)(C(C)=O)CC3OC1CC(NC2CCOCC2)C(O)C(C)O1 (stereo not drawn)
inactive: dose: 3.12 mg/kg/injection, schedule: Q04DX003 (ip), vehicle: water 101 % of control | dose: 6.25 mg/kg/injection, schedule: Q04DX003 (ip), vehicle: water 101 % of control and 107 % of control | dose: 12.5 mg/kg/injection, schedule: Q04DX003 (ip), vehicle: water 102 % of control and 107 % of control | dose: 25.0 mg/kg/injection, schedule: Q04DX003 (ip), vehicle: water 118 % of control | dose: 50.0 mg/kg/injection, schedule: Q04DX003 (ip), vehicle: water 120 % of control | dose: 200.0 mg/kg/injection, schedule: Q04DX003 (ip), vehicle: water 111 % of control

Cc1ccc(C(O)(c2ccc(C)cc2)C2(O)CCN(C)CC2)cc1
inactive: dose: 50.0 mg/kg/injection, schedule: Q01DX005 (ip), vehicle: Klucel (hydroxypropylcellulose) (HPC) 107 % of control | dose: 100.0 mg/kg/injection, schedule: Q01DX005 (ip), vehicle: Klucel (hydroxypropylcellulose) (HPC) 97 % of control | dose: 200.0 mg/kg/injection, schedule: Q01DX005 (ip), vehicle: Klucel (hydroxypropylcellulose) (HPC) 92 % of control

C/C=C(/C)C(=O)OC1c2c(C)coc2CC23OC2CCC(C)C13C (stereo not drawn)
inactive: [17] 98 % of control | dose: 25.0 mg/kg/injection, schedule: Q01DX009 (ip), vehicle: Klucel (hydroxypropylcellulose) (HPC) 105 % of control | [11] 99 % of control

CC(C)N=C(c1ccccc1)N1CCCCC1
inactive: [8] 98 % of control | [18] 100 % of control

COc1c2c(c(N3CCCC3)c3c1C(=O)c1ccccc1C3=O)C(=O)CCC2
inactive: dose: 100.0 mg/kg/injection, schedule: Q01DX001 (ip), vehicle: saline with Tween-80 100 % of control | dose: 200.0 mg/kg/injection, schedule: Q01DX001 (ip), vehicle: saline with Tween-80 105 % of control | dose: 400.0 mg/kg/injection, schedule: Q01DX001 (ip), vehicle: saline with Tween-80 94 % of control

CCOCCOCCOC(C)Oc1ccc(Br)cc1 (stereo not drawn)
inactive: dose: 60.0 mg/kg/injection, schedule: Q01DX005 (ip), vehicle: saline with Tween-80 104 % of control | dose: 120.0 mg/kg/injection, schedule: Q01DX005 (ip), vehicle: saline with Tween-80 100 % of control | dose: 240.0 mg/kg/injection, schedule: Q01DX005 (ip), vehicle: saline with Tween-80 104 % of control

CCCCCSCN(CC)CC
inactive: [7] 103 % of control | [18] 99 % of control and 101 % of control | [9] 100 % of control and 104 % of control and 91 % of control | dose: 100.0 mg/kg/injection, schedule: Q01DX009 (ip), vehicle: saline 99 % of control and 101 % of control and 104 % of control | [3] 114 % of control | [10] 119 % of control (2×) and 120 % of control

COC(=O)c1nnc2n1-c1ccc(Cl)cc1C(c1ccccc1)=[N+]([O-])C2
inactive: dose: 50.0 mg/kg/injection, schedule: Q04DX002 (ip), vehicle: saline with Tween-80 96 % of control | dose: 100.0 mg/kg/injection, schedule: Q04DX002 (ip), vehicle: saline with Tween-80 104 % of control | dose: 200.0 mg/kg/injection, schedule: Q04DX002 (ip), vehicle: saline with Tween-80 99 % of control

Reference: PubChem BioAssay AID330 (DTP/NCI, 2004)
